Measurements published in patent publication US5830855A, “Lipodepsipeptides as antifungal and fungicidal agents” (priority 1996, dated 1998).
Numbered stars: 1 amine (or outer) side, 2 acyl side, 3 side chain; on linkers, the order of the positions; unused ones are H or OH. Bridge positions count the residues as written; N and C are the ends. Square brackets hold non-standard residues; d marks the D form. Peptide text beside a SMILES is read from it. * marks the point of attachment. ξ: configuration not given here. Asp(3S-OH) = N[C@H](C(=O)O)[C@H](O)C(=O)O; Thr(4-Cl) = N[C@H](C(=O)O)[C@H](O)CCl; ξAsp(3ξ-OH) = NC(C(=O)O)C(O)C(=O)O; X3 = O=C(C(N[*:1])C(O)CCl)[*:2]; X1 = CCCCCCCCC[C@@H](O)CC(=O)*; X2 = CCCCCCCCCCCC(O)CC(=O)*; dDab = NCC[C@@H](N)C(=O)O; Dab = NCC[CH](N)C(=O)O; Orn = NCCC[CH](N)C(=O)O; hSer = N[CH](CCO)C(=O)O; Dhb = C/C=C(\N)C(=O)O

What was measured:
[1] = test system: pokeweed mitogen (PWM)-induced lymphocyte proliferation; experiment: PWM-induced lymphocyte proliferation ([3H]-thymidine incorporation); type: cell-based, human
Protocol: (§1) Lipodepsipeptide for Immunosuppression Experiments: SR-E was purified as previously described in Bidwai, A. P., Bachmann, R. C. and Takemoto, J. Y., "Mechanism of action of Pseudomonas syringae phytotoxin syringomycin". Plant Physiol. 83:39-43 (1987). A stock solution (10 mg per ml) was prepared in RPMI1640 culture media, aliquoted and stored frozen at -20°.
(§2) Lymphocyte stimulation: Lymphocyte stimulation was performed with three different mitogens: phytohemagglutinin (PHA), pokeweed mitogen (PWM), and monoclonal antibody to CD3 (anti-CD3). […]
(§3) Mitogen-induced lymphocyte proliferation: Peripheral blood mononuclear cells (MNC) (containing lymphocytes and monocytes) were separated by Ficoll-Hypaque density-gradient centrifugation using techniques well known in the art. Mitogen-induced lymphocyte proliferation was determined as previously described in Singh, V. K., "Stimulatory effect of corticotropin-releasing neurohormone on human lymphocyte proliferation and interleukin-2 receptor expression". […]
(§4) [^3 H]-thymadine Incorporation: Cells were pulse-labeled for 4 hours with 0.5 μCi/well of [^3 H]methyl-thymidine (spec. act.=25 Ci/mmol from Amersham Intl.). […] To each vial, 2 ml of CytoScint fluid (ICN Biomedicals) was dispensed and the radioactivity determined using a liquid scintillation counter (Tri-Carb, Packard). […]

[2] = test system: lymphocytes (peripheral blood mononuclear cells); experiment: Lymphocyte proliferation in the absence of mitogens ([3H]-thymidine incorporation); type: cell-based, human; settings: SR-E at concentrations of 5.72 μM and lower; FIG. 3
Protocol: as §1
as §3, with “expression". J.Neuroimmunol.23.257-262 (1989). Briefly, MNC were cultured in triplicate in 96-well microtiter plates (Corning, Inc.).” for “expression".”
[^3 H]-thymadine Incorporation: Cells were pulse-labeled for 4 hours with 0.5 μCi/well of [^3 H]methyl-thymidine (spec. act.=25 Ci/mmol from Amersham Intl.). […] To each vial, 2 ml of CytoScint fluid (ICN Biomedicals) was dispensed and the radioactivity determined using a liquid scintillation counter (Tri-Carb, Packard). The rate of [^3 H]-thymidine incorporation by MNC was calculated as counts per minute per 10 ^5 cells.

[3] = test system: phytohemagglutinin (PHA)-induced lymphocyte proliferation; experiment: PHA-induced lymphocyte proliferation ([3H]-thymidine incorporation); type: cell-based, human
Protocol: as §1, §2, §3, §4

Mucor spp. = experiment: Broth microdilution MIC; type: cell-based; settings: Table 1 (MICs), 5 isolates, 48 hr
Protocol: (§5) Medium: Liquid RPMI 1640 (RPMI) medium with L-glutamine and without sodium bicarbonate (Sigma Chemical Co., R-6504; St. Louis, Mo.) buffered with 0.165M MOPS (34.54 g/liter) was used for in vitro antifungal tests. The medium was adjusted to pH 7.0 with 10M NaOH and filter sterilized.
Lipodepsipeptide Dilutions: All stock drug solution concentrations were at least 10-fold higher than the highest concentration tested. AmB, ketoconazole, and the test compounds (SR-E, ST-B, and SS-A) were dissolved in sterile distilled water, 0.2N HCl, and 0.001N HCl, respectively. Each stock solution was diluted to 2× the highest concentration of drug tested with RPMI. Two-fold dilutions were made with RPMI medium.
Preparation of Inoculum Suspensions: On Sabouraud dextose agar (SDA; BBL, Becton and Dickinson and Co., Cockeysville, Md.) all isolates were subcultured at least twice before use to ensure purity and viability. Candida spp. and Saccharomyces cerevisiae were grown for 24 hr at 35° C. Isolates of Cryptococcus neoformans were grown for 48 hr at 35° C. Yeast cells from at least five 1-mm-diameter colonies were suspended in 5 ml of sterile 0.85% saline. The resulting suspension was vortexed for 15 sec. The turbidity of each mixed suspension was measured at 530 nm and adjusted to 1×10^6 to 5×10^6 CFU/ml by the NCCLS spectrophotometric method described by National Committee for Clinical Laboratory Standards. 1992. Reference method for broth dilution antifungal susceptibility testing of yeasts; proposed standard, NCCLS document M27-P (ISBN 1-56238-186-5). NCCLS, Villanova. The final transmission of each yeast suspension ranged from 85-87%.
Aspergillus fumigatus and Mucor spp. were grown for 1 wk at 35° C. The dermatophytes, Microsporum spp. and Trichophyton spp., were grown for two wk at 30° C. Fungal spores were washed from the plates of all good spore formers (A. fumigatus, Mucor spp., Microsporum canis and Trichophyton spp.) by placing 5 ml of 0.85% saline with 0.2% Tween 80 on the plates and mixing with an inoculating loop. The spore/mycelium suspension was drawn off with a pipette and allowed to settle for at least 5 min. For the poor spore-forming Microsporum audouinii, the procedure was the same except the spore/mycelial suspension was homogenized with a ground glass tissue homogenizer and then allowed to settle for at least 5 min. A small amount of the supernatant was transferred to 5 ml of sterile saline and vortexed. The stock suspensions of all filamentous fungi were measured at 530 nm and adjusted to 85-87% transmission. The concentration (1×10^6 to 5×10^6 CFU/ml) was determined by hemacytometer count or plate count on SDA. All stock suspensions were diluted 1000-fold with RPMI, or 2× the final desired test inocula. The 2× inoculum was diluted 1:1 when the wells were inoculated, and the desired inoculum size was achieved.
Broth Microdilution Test: Broth microdilution tests were performed using sterile, disposable, multiwell microdilution plates (96 round U-bottom wells) (Falcon 3077; Becton and Dickinson Labware, Lincoln Park, N.J.). The drugs (2× concentrations) were dispensed into the wells of rows number 1 to 10 of the microdilution plates in 100 μl volumes from highest drug concentration to lowest drug concentration. Each well was inoculated with 100 μl of the corresponding 2× concentrated fungal suspension. The wells of row 11 contained the inoculum with drug-free media as a positive growth control and the wells of row 12 contained uninoculated-drug-free medium as a sterility control.
Incubation and Scoring of MIC: All cultures were incubated without shaking at the temperature used during subculture. Incubation times were 48 hr for Candida spp., S. cerevisiae, A. fumigatus, and Mucor spp; 72 hr for C. neoformans; and 7 days for Microsporum and Trichophyton spp. […]

[4] = test system: clinical isolates (fungi); experiment: Broth microdilution MIC, fungal isolates overall; type: cell-based; settings: summary range over the fungi tested
Source text: Most of the fungal strains used in the tests were clinical isolates obtained from the University of Texas Health Science Center at San Antonio Fungus Testing Laboratory (San Antonio, Tex.) and the remaining isolates were ATCC strains.
as §5
Lipodepsipeptide Dilutions: All stock drug solution concentrations were at least 10-fold higher than the highest concentration tested. […]
Preparation of Inoculum Suspensions: On Sabouraud dextose agar (SDA; BBL, Becton and Dickinson and Co., Cockeysville, Md.) all isolates were subcultured at least twice before use to ensure purity and viability. […] The turbidity of each mixed suspension was measured at 530 nm and adjusted to 1×10^6 to 5×10^6 CFU/ml by the NCCLS spectrophotometric method described by National Committee for Clinical Laboratory Standards. […]
Aspergillus fumigatus and Mucor spp. were grown for 1 wk at 35° C. […] The stock suspensions of all filamentous fungi were measured at 530 nm and adjusted to 85-87% transmission. The concentration (1×10^6 to 5×10^6 CFU/ml) was determined by hemacytometer count or plate count on SDA. […]

SMILES	inhibition of PWM response ([1]; 1.14 μM)	suppression of PWM response ([1]; 5.72 μM, p=0.017) [%]	effect on cell proliferation in the absence of mitogens ([3H]-thymidine incorporation) [2]	significant inhibition of PHA response ([3]; 1.14 μM)	suppression of PHA response ([3]; 5.72 μM, p=0.026) [%]	MIC range (Mucor spp.) [µg/mL]	antifungal activity (overall range) [4] [g/mL]
C/C=C1\NC(=O)[C@H](Cc2ccccc2)NC(=O)[C@H](CCCN=C(N)N)NC(=O)[C@@H](CCN)NC(=O)[C@H](CCN)NC(=O)[C@@H](CO)NC(=O)[C@@H](NC(=O)C[C@H](O)CCCCCCCCC)COC(=O)[C@H]([C@H](O)CCl)NC(=O)[C@H]([C@H](O)C(=O)O)NC1=O [SR-E, Syringomycin-E] (X1-S[dS][Dab][dDab]RF[Dhb][Asp(3S-OH)][Thr(4-Cl)]; ester 1-C)	significantly inhibited	60	no effect	not	25	–	–
C/C=C1\NC(=O)C(C(C)O)NC(=O)C(CCCN)NC(=O)C(CCO)NC(=O)CNC(=O)C(CCN)NC(=O)C(NC(=O)CC(O)CCCCCCCCCCC)COC(=O)C(C(O)CCl)NC(=O)C(C(O)C(=O)O)NC1=O (stereo not shown) [ST-B, Syringotoxin B] (X2-S[Dab]G[hSer][Orn]T[Dhb][ξAsp(3ξ-OH)][X3]; ester 1-C; configuration not given here)	–	–	–	–	–	6.25 to 100	0.8 to 200
